Experimental data as given in ChEMBL document CHEMBL1909046, “DrugMatrix in vitro pharmacology data”.

Key:
[1] = DRUGMATRIX: ATPase, Na+/K+ enzyme inhibition (substrate: ATP); type: tissue-based, Sus scrofa, Heart; details: Not Active = under 50% inhibition at 10 µM
Thromboxane-A synthase = biological target: T1, Thromboxane-A synthase (Homo sapiens, UniProt P24557); assay: biochemical; type: tissue-based, Platelet; details: platelet;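 note: enzyme inhibition assay with PGH2 supplied as substrate; in other assays of this panel Not Active means under 50% inhibition at 10 µM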
T1 sequence (P24557 whole entry): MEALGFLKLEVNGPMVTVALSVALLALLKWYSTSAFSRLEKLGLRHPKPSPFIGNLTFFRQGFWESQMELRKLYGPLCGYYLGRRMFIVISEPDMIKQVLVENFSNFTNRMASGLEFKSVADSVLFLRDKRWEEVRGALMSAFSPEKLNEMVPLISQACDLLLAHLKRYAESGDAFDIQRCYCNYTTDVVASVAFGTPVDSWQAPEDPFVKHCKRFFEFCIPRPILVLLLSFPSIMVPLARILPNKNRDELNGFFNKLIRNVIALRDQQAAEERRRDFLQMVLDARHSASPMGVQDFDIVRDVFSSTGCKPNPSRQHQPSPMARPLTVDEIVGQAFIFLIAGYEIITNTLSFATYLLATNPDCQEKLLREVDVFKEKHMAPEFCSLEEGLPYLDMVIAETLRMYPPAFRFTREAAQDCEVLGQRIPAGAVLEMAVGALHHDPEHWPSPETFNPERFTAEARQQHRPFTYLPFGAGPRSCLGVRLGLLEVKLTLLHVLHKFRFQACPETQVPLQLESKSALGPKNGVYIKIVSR

[2] = biological target: T2, C-C chemokine receptor type 4 (Homo sapiens, UniProt P51679); type: cell membranes, Membrane; details: chem-1; note: in other assays of this panel Not Active means under 50% inhibition at 10 µM
T2 sequence (P51679 whole entry): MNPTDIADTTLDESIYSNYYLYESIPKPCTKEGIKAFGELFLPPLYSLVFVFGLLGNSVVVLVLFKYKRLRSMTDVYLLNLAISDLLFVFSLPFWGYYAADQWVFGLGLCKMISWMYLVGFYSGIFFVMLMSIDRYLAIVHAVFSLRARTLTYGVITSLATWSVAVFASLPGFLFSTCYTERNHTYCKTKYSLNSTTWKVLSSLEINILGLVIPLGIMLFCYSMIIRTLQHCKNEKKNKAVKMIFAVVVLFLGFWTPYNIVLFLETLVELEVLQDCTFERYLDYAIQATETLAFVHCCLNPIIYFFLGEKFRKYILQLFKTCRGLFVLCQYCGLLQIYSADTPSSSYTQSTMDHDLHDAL

[3] = DRUGMATRIX: Glutamate, AMPA radioligand binding (ligand: [3H] AMPA); type: cell membranes, Rattus norvegicus, Wistar, Cerebral cortex, Membrane; details: Not Active = under 50% inhibition at 10 µM
[4] = DRUGMATRIX: Leukotriene, BLT (LTB4) radioligand binding (ligand: [3H]LTB4); type: cell membranes, Membrane; details: u-937; Not Active = under 50% inhibition at 10 µM
Melanocortin receptor 5 = Melanocortin receptor 5 (Homo sapiens, UniProt P33032); type: cell membranes, HEK293, Membrane; details: hek293; note: in other assays of this panel Not Active means under 50% inhibition at 10 µM
[5] = biological target: Matrix metalloproteinase-9 (Homo sapiens, UniProt P14780); type: cell-based;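 note: inhibition of isolated MMP-9 enzyme activity toward a synthetic peptide substrate, from the DrugMatrix protease screening panel; in other assays of this panel Not Active means under 50% inhibition at 10 µM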
Sequence of Matrix metalloproteinase-9 (P14780 whole entry): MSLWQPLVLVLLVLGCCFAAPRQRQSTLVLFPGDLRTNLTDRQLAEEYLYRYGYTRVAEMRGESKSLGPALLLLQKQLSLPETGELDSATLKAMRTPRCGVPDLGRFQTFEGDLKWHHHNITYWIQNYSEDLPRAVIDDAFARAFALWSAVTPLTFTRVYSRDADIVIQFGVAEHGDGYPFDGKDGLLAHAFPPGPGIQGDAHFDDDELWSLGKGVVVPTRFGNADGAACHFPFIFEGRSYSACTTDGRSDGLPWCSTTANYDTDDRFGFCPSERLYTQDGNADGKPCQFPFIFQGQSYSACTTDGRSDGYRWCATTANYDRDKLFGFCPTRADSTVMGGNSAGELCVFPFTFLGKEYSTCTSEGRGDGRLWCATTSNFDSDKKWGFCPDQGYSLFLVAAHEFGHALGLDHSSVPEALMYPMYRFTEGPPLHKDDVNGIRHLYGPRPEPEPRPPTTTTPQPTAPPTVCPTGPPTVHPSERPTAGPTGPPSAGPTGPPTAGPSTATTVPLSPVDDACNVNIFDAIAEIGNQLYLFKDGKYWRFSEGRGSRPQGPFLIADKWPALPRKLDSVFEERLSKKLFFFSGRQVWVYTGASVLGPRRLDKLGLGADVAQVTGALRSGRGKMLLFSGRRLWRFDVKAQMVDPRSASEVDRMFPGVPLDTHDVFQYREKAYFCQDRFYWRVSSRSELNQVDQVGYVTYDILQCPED

Sequence of Melanocortin receptor 5 (P33032 whole entry): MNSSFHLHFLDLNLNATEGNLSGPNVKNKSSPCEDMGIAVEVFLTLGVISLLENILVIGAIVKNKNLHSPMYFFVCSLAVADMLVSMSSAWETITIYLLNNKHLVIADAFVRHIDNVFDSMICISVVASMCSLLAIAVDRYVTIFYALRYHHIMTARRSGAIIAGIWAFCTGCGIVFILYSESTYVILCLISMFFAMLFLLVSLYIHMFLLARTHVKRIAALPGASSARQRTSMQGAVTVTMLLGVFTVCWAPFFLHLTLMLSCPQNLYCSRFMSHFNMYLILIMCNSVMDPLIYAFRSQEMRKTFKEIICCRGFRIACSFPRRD

CO/N=C(\C(=O)N[C@@H]1C(=O)N2C(C(=O)O)=C(COC(C)=O)CS[C@H]12)c1csc(N)n1 [CEFOTAXIME]
Not Active: IC50 [1] | Ki [1] | IC50 (Thromboxane-A synthase) | IC50 [2] | IC50 [3] | Ki [3] | IC50 [4] | Ki [4] | IC50 (Melanocortin receptor 5) | IC50 [5]

CNC1=Nc2ccc(Cl)cc2C(c2ccccc2)=[N+]([O-])C1 [CHLORDIAZEPOXIDE]
Not Active: IC50 [1] | Ki [1] | IC50 (Thromboxane-A synthase) | IC50 [2] | IC50 [3] | Ki [3] | IC50 [4] | Ki [4] | IC50 (Melanocortin receptor 5) | IC50 [5]

Cc1cc(O)cc(C)c1Cl [CHLOROXYLENOL]
Not Active: IC50 [1] | Ki [1] | IC50 (Thromboxane-A synthase) | IC50 [2] | IC50 [3] | Ki [3] | IC50 [4] | Ki [4] | IC50 (Melanocortin receptor 5) | IC50 [5]

CCCNC(=O)NS(=O)(=O)c1ccc(Cl)cc1 [CHLORPROPAMIDE]
Not Active: IC50 [1] | Ki [1] | IC50 (Thromboxane-A synthase) | IC50 [2] | IC50 [3] | Ki [3] | IC50 [4] | Ki [4] | IC50 (Melanocortin receptor 5) | IC50 [5]

NS(=O)(=O)c1cc(C2(O)NC(=O)c3ccccc32)ccc1Cl (stereo not given) [CHLORTHALIDONE]
Not Active: IC50 [1] | Ki [1] | IC50 (Thromboxane-A synthase) | IC50 [2] | IC50 [3] | Ki [3] | IC50 [4] | Ki [4] | IC50 (Melanocortin receptor 5) | IC50 [5]

O=C(O)CC(O)(CC(=O)O)C(=O)O [CITRIC ACID]
Not Active: IC50 [1] | Ki [1] | IC50 (Thromboxane-A synthase) | IC50 [2] | IC50 [3] | Ki [3] | IC50 [4] | Ki [4] | IC50 (Melanocortin receptor 5) | IC50 [5]

CC(C)NCC(O)c1ccccc1Cl (stereo not given) [CLORPRENALINE]
Not Active: IC50 [1] | Ki [1] | IC50 (Thromboxane-A synthase) | IC50 [2] | IC50 [3] | Ki [3] | IC50 [4] | Ki [4] | IC50 (Melanocortin receptor 5) | IC50 [5]

CN1CCN(C(c2ccccc2)c2ccccc2)CC1 [CYCLIZINE]
Not Active: IC50 [1] | Ki [1] | IC50 (Thromboxane-A synthase) | IC50 [2] | IC50 [3] | Ki [3] | IC50 [4] | Ki [4] | IC50 (Melanocortin receptor 5) | IC50 [5]

CN1C[C@@H]2C[C@H]1CN2c1cc2c(cc1F)c(=O)c(C(=O)O)cn2C1CC1 [DANOFLOXACIN]
Not Active: IC50 [1] | Ki [1] | IC50 (Thromboxane-A synthase) | IC50 [2] | IC50 [3] | Ki [3] | IC50 [4] | Ki [4] | IC50 (Melanocortin receptor 5) | IC50 [5]

COc1cccc2c1C(=O)c1c(O)c3c(c(O)c1C2=O)C[C@@](O)(C(C)=O)C[C@@H]3O[C@H]1C[C@H](N)[C@H](O)[C@H](C)O1 [DAUNORUBICIN]
Not Active: IC50 [1] | Ki [1] | IC50 (Thromboxane-A synthase) | IC50 [2] | IC50 [3] | Ki [3] | IC50 [4] | Ki [4] | IC50 (Melanocortin receptor 5) | IC50 [5]

O=C(O)c1cc(-c2ccc(F)cc2F)ccc1O [DIFLUNISAL]
Not Active: IC50 [1] | Ki [1] | IC50 (Thromboxane-A synthase) | IC50 [2] | IC50 [3] | Ki [3] | IC50 [4] | Ki [4] | IC50 (Melanocortin receptor 5) | IC50 [5]

C[S+](C)[O-] [DIMETHYL SULFOXIDE]
Not Active: IC50 [1] | Ki [1] | IC50 (Thromboxane-A synthase) | IC50 [2] | IC50 [3] | Ki [3] | IC50 [4] | Ki [4] | IC50 (Melanocortin receptor 5) | IC50 [5]

CC1=NN(c2ccccc2)C(=O)C1 [EDARAVONE]
Not Active: IC50 [1] | Ki [1] | IC50 (Thromboxane-A synthase) | IC50 [2] | IC50 [3] | Ki [3] | IC50 [4] | Ki [4] | IC50 (Melanocortin receptor 5) | IC50 [5]

CC(C)C[C@H]1C(=O)N2CCC[C@H]2[C@]2(O)O[C@](NC(=O)[C@@H]3C=C4c5cccc6[nH]cc(c56)C[C@H]4N(C)C3)(C(C)C)C(=O)N12 [ERGOCRYPTINE]
Not Active: IC50 [1] | Ki [1] | IC50 (Thromboxane-A synthase) | IC50 [2] | IC50 [3] | Ki [3] | IC50 [4] | Ki [4] | IC50 (Melanocortin receptor 5) | IC50 [5]

C[C@]12CC[C@@H]3c4ccc(O)cc4CC[C@H]3[C@@H]1C[C@@H](O)[C@@H]2O [ESTRIOL]
Not Active: IC50 [1] | Ki [1] | IC50 (Thromboxane-A synthase) | IC50 [2] | IC50 [3] | Ki [3] | IC50 [4] | Ki [4] | IC50 (Melanocortin receptor 5) | IC50 [5]

C#C[C@]1(O)CC[C@H]2[C@@H]3CCC4=CC(=O)CC[C@]4(C)[C@H]3CC[C@@]21C [ETHISTERONE]
Not Active: IC50 [1] | Ki [1] | IC50 (Thromboxane-A synthase) | IC50 [2] | IC50 [3] | Ki [3] | IC50 [4] | Ki [4] | IC50 (Melanocortin receptor 5) | IC50 [5]

CC(O)(P(=O)(O)O)P(=O)(O)O [ETIDRONIC ACID]
Not Active: IC50 [1] | Ki [1] | IC50 (Thromboxane-A synthase) | IC50 [2] | IC50 [3] | Ki [3] | IC50 [4] | Ki [4] | IC50 (Melanocortin receptor 5) | IC50 [5]

CC(C)(C(=O)O)c1ccc(C(O)CCCN2CCC(C(O)(c3ccccc3)c3ccccc3)CC2)cc1 (stereo not given) [FEXOFENADINE]
Not Active: IC50 [1] | Ki [1] | IC50 (Thromboxane-A synthase) | IC50 [2] | IC50 [3] | Ki [3] | IC50 [4] | Ki [4] | IC50 (Melanocortin receptor 5) | IC50 [5]

CN1CCN(c2c(F)cc3c(=O)c(C(=O)O)cn(CCF)c3c2F)CC1 [FLEROXACIN]
Not Active: IC50 [1] | Ki [1] | IC50 (Thromboxane-A synthase) | IC50 [2] | IC50 [3] | Ki [3] | IC50 [4] | Ki [4] | IC50 (Melanocortin receptor 5) | IC50 [5]

O=c1[nH]c(=O)n([C@H]2C[C@H](O)[C@@H](CO)O2)cc1F [FLOXURIDINE]
Not Active: IC50 [1] | Ki [1] | IC50 (Thromboxane-A synthase) | IC50 [2] | IC50 [3] | Ki [3] | IC50 [4] | Ki [4] | IC50 (Melanocortin receptor 5) | IC50 [5]

COC(=O)Nc1nc2cc(C(=O)c3ccc(F)cc3)ccc2[nH]1 [FLUBENDAZOLE]
Not Active: IC50 [1] | Ki [1] | IC50 (Thromboxane-A synthase) | IC50 [2] | IC50 [3] | Ki [3] | IC50 [4] | Ki [4] | IC50 (Melanocortin receptor 5) | IC50 [5]
